Measured values as given in patent US20070287830A1, “Trisazo Dye, Composition Containing the Same for Anisotropic Dye Film, Anisotropic Dye Film, and Polarizing Element” (Mitsubishi Chemical Corporation, priority 2004, published 2007).

Experiments:
[1] = degree of polarization of anisotropic dye film formed by wet system film-forming method; type: physicochemical
Text: In the following Examples, the degree of polarization was obtained by measuring the transmittance of an anisotropic dye film by a spectrophotometer having an iodine type polarizing element disposed in an incident optical system, followed by calculation in accordance with the following formula: Degree of polarization (P %)={(Ty−Tz)/(Ty+Tz)}×100
Tz: transmittance of a dye film for a polarized light in the absorption axis direction
Ty: transmittance of a dye film for a polarized light in the polarization axis direction
On the other hand, as a substrate, a glass substrate having a polyimide oriented film formed thereon by silk printing (75 mm×25 mm, thickness 1.1 mm, the polyimide oriented film with a polyimide film thickness of about 800 Å preliminarily subjected to rubbing treatment with cotton cloth) was prepared. […]
The transmittance (Tz) of the obtained anisotropic dye film for a polarized light having a plane of vibration in the absorption axis direction in the plane of the dye film and the transmittance (Ty) for a polarized light having a plane of vibration in the polarization axis direction in the plane of the dye film were measured and shown in FIG. 1. […]

[2] = transmission chromaticity and excitation purity of dye aqueous solution under standard illuminant D65; type: physicochemical
Description: Here the excitation purity is obtained in such a manner that the chromaticity coordinates N of standard illuminant and the chromaticity coordinates C of the obtained dye in the chromaticity diagram are connected with a straight line, and the wavelength corresponding to the intersection point of the extension of the straight line and the spectrum locus is taken as the dominant wavelength, and the excitation purity is calculated from the proportion at the respective points. The chromaticity coordinate C can be obtained in such a manner that the dye is added to water to obtain a dye aqueous solution, the visible light transmittance of the aqueous solution is measured by a spectrophotometer, and the chromaticities x and y in the CIE 1964 supplementary standard […] system under standard illuminant D65 are calculated.
The excitation purity of the dye in the present invention means one measured and calculated with respect to the dye aqueous solution obtained by adding the dye to water and the excitation purity of the anisotropic dye film means one measured and calculated with respect to a film formed by applying a composition for an anisotropic dye film described hereinafter in detail to a substrate. […]

COc1cc(N=Nc2c(S(=O)(=O)O)cc3ccc(N=Nc4cc(S(=O)(=O)O)c(N)cc4N)cc3c2O)c(OC)cc1N=Nc1ccc(OC)c(S(=O)(=O)O)c1 [dye No. (1-1)]
degree of polarization (P %) (light absorption anisotropy) ([1]; spin coated on rubbed polyimide/glass, from about 500 nm to about 650 nm): at least 80%
degree of polarization (P %) ([1]; vicinity of maximum absorption wavelength, from 550 nm to 600 nm): at least 90%
trail of the chromaticity of the aqueous solution at the respective dye concentrations ([2]; C.I.E. chromaticity diagram, 10% (or 5 wt %), 1,000 ppm and 10 ppm): passed near the chromaticity (w) of standard illuminant D65
excitation purity (pe) ([2]; dye aqueous solution at a concentration of 10%, optical path length 0.01 mm, D65): 17%
